The subject of data set [1] is neonatal mouse skin fibroblasts (NSF) and mouse cardiac fibroblasts (nCFs). The data set is described as follows: Substitute for 2C: small molecules of the same signaling pathway (beating cells in GMT NSF, cTnT positive cells in MT nCF). It counts as cell-based. As to conditions: GMT NSF D18 beating, MT nCF four weeks cTnT; for replacement of SB431542 (beating cells, number of cTnT-positive cells): combined with Baricitinib; for replacement of Baricitinib (beating cells, number of cTnT-positive cells): combined with SB431542. How it is done: Specifically, at D-2 (day-2), Myh6-mCherry neonatal mouse skin fibroblasts (NSF) were plated; at D-1 (day-1),the cells were infected with three lentiviruses expressing Gata4, Mef2c and Tbx5 (GMT), respectively; at D0 (day 0), the media were replaced with reprogramming media added with small molecules, and replaced every 3-4 days; andat D18, beating cells were counted. In addition, at D-2, WT mouse cardiac fibroblasts (nCFs) were plated, and residual cardiomyocytes were removed with CD90.2 MACS; at D-1, the cells were infected with virus expressing Mef2c+Tbx5 (MT); at D0, the media were replaced with reprogramming media added with small molecules, and replaced every 3 days; and after four weeks, cTnT positive cells were counted.2C was used as a positive control.
SB431542 is an inhibitor of TGFβ signaling pathway, and this example analyzed whether other small molecules of this signaling pathway could be combined with Baricitinib, including RepSox, GW788388, SD-208, LY364947, Y-27632, LDN-193189, LY2109761 and Galunisertib. Baricitinib is an inhibitor of Jak pathway, and this example analyzed whether other small molecules of this signaling pathway could be combined with SB431542, including Filgotinib, WP1066, Gandotinib, Ruxolitinib and AZD1480. […] It can be seen that the TGFβ signaling pathway is important for reprogramming into cardiomyocytes; however, at the same time, Baricitinib cannot be replaced by most other compounds targeting Jak-Stat.

For data set [2], the system named is neonatal mouse fibroblasts. The data set is described as follows: Tyk2 small molecule inhibitors: reprogramming of neonatal mouse fibroblasts into cardiomyocytes (MT+SB431542). As to conditions: for beating cardiomyocytes: 2 uM SB431542; for cTnI and a-actinin positive cells: 2 uM SB431542, Tyk2 inhibitor 1, 2, 5 and 10 uM. It counts as cell-based. How it is done: Neonatal suckling mice within 24 h were ordered from Vital River. In an ultraclean bench, heart tissue was taken, cut with sterilized surgical instruments, added with an appropriate amount of Type II Collagenase (1 mg/mL), digested at 37° C. constant temperature, after full digestion, washed twice with IMDM (20% FBS+1% PS+1% NEAA+1% Glu-Max) medium, resuspended with the medium, and plated in a 10 cm culture dish. After 24 h, fresh IMDM was added, and on the fourth day, CD90.2 (anti-Thy1+) was used for MACS separation. The sorted cells were plated in a 24-well plate 2-5×10^5/well), and infected with Fu-tet-o-Mef2c-T2A-Tbx5 virus and rtTA 24 h after plating. After 24 h, the medium was replaced with reprogramming medium, and replaced every 3 days. Beating cells could be seen at the 4th week, and a large number of cTnI and a-actinin could be seen by immunofluorescence staining.
10% FBS, 10% KSR, DMEM/M199 [4:1], 1% PS+1% NEAA+1% Glu-Max, 2 uM SB431542, Tyk2 inhibitor (BMS-986165 or PF-06826647), replaced every 3 days. Tyk2 inhibitor was used at 1, 2, 5 and 10 uM, and the optimal concentration is shown in the concentration gradient curve.

Data set [3] relates to Myh6-mCherry neonatal mouse skin fibroblasts (NSF). The data set is described as follows: GMT-mediated reprogramming of Myh6-mCherry neonatal mouse skin fibroblasts into induced cardiomyocyte like cells (iCM). It counts as cell-based. As to conditions: for optimal action concentration: cTnT staining, titrated on 2 μM of the other small molecule of 2C. How it is done:
Reprogramming steps: at d-2, plating cells; at d-1, infecting with virus; andat d0, removing virus-containing medium, and replacing with reprogramming medium. Beating cell count and immunofluorescence assay were performed after approximately 3 weeks.
iCM reprogramming medium: DMEM/M199 (4:1) supplemented with 10% KnockOut serum replacement (KSR), 10% FBS, 1% GlutaMAX, 1% MEM NEAA, 1% Pen Strep, 2 μg/ml Dox and small molecule mixture 2C (2 μM SB431542, 2 μM Baricitinib).
At D-2, 24-well plate was coated with 0.1% gelatin and then placed in a cell culture incubator at 37° C. for 30 min, then the gelatin was aspirated, and the 24-well plate was inoculated with 80,000 cells per well. At D-1, MEF medium containing 6 ng/μl polybrene was replaced, the cells were infected with FU-tet-o-Gata4, FU-tet-o-Mef2c, FU-tet-o-Tbx5, FUdeltaGW-rtTA, 200 μl unconcentrated virus per well per virus. At D0, the medium was replaced with iCM reprogramming medium, and replaced every 3-4 days.
Screening was performed on Myh6-mCherry neonatal mouse dermal fibroblasts. Small molecule library was screened simultaneously with transfection of three genes of GMT (Gata4, Mef2c and Tbx5) to quantify the effect of small molecules on reprogramming by observing the ratio and brightness of reporter genes, as shown in FIG. 1A. Specifically, at D-2 (day-2), Myh6-mCherry neonatal mouse skin fibroblasts (NSF) were plated; at D-1 (day-1), the cells were infected with three lentiviruses expressing Gata4, Mef2c and Tbx5 (GMT), respectively; and at D0 (day 0), the media were replaced with reprogramming media added with small molecules, and replaced every 3-4 days. After three weeks of induction, the number of Myh6-mCherry positive cells was observed and counted to screen for small molecules that promoted the induced cardiomyocyte like cells (iCM).
The optimal action concentration and optimal action time of 2C were then further investigated. […] First, the optimal action concentration of SB431542 was determined by cardiomyocyte marker cTnT staining after adding different concentrations of SB431542 based on 2 μM Baricitinib. […]

In data set [4] the test system is WT mouse cardiac fibroblasts (nCFs). The data set is described as follows: Replacement of Baricitinib in combination with SB431542 on the basis of MT transduction. It counts as cell-based. As to conditions: three weeks. The text has this:
In addition, some small anti-inflammatory molecules have been reported to increase reprogramming-induced cardiomyocyte efficiency, such as Dexamethasone or Nabumetone.

Data set [5] relates to Tyk2 gene. The data set is described as follows: Knockdown effect of shRNAs on Tyk2 expression. As to conditions: FIG. 21C. It counts as cell-based, mouse. The source says:
(§1) Briefly, shRNAs targeting Tyk2 gene (shTyk2#1, shTyk2#2, shTyk2#3, shTyk2#4, shTyk2#5) were designed, introduced into neonatal mouse fibroblasts together with transcription factor combination MT, and then induced in reprogramming medium containing C1 to test the efficiency of reprogramming into cardiomyocyte-like cells.

Data set [6] relates to neonatal mouse fibroblasts. The data set is described as follows: Cardiomyocyte reprogramming with Tyk2 knockdown/knockout plus MT and C1. The format is cell-based. As to conditions: combined with transcription factor MT and C1.
Text: as §1
To further confirm the role of specific inhibition of Tyk2 in cardiomyocyte reprogramming, the inventors further designed five different sgRNAs targeting Tyk2 gene, knocked out the Tyk2 gene of neonatal mouse fibroblasts using CRISPR technique, and tested the efficiency of cardiomyocyte reprogramming in the presence of transcription factor MT and C1, respectively. sgNT was a control for non-targeted Tyk2.

20 compounds from patent publication US20240384233A1, “Method for Producing Cardiomyocytes by Means of Reprogramming” (Plastech Pharmaceutical Technology Co., Ltd., priority 2020, published 2024) can be followed below.

For the compound `Cc1cccc(-c2nn3c(c2-c2ccnc4ccc(C(N)=O)cc24)CCC3)n1` [Galunisertib], in data set [1], the “replacement of SB431542 (beating cells, number of cTnT-positive cells)” value (“replacement of SB431542” below) is reported as “could be effectively replaced by small molecules of the same signaling pathway”.

As to `C[C@@H](N)[C@H]1CC[C@H](C(=O)Nc2ccncc2)CC1` [Y-27632], the “replacement of SB431542” value in data set [1] is given as “could be effectively replaced by small molecules of the same signaling pathway”.

Take BMS-986165: in data set [2], the beating cardiomyocytes entry was “could induce beating cardiomyocytes from fibroblasts”; the “cTnI and a-actinin positive cells” value is “could induce a number of cardiac specific markers cTnI and a-actinin positive cells from fibroblasts”.

As for `Cc1cc(Nc2cc(CN3CCOCC3)c3nc(C)c(Cc4ccc(Cl)cc4F)n3n2)n[nH]1` [Gandotinib], the “replacement of Baricitinib (beating cells, number of cTnT-positive cells)” value (“replacement of Baricitinib” for short) in data set [1] is “only its structural analogue Ruxolitinib could be used for replacement”.

For `NC(=O)c1ccc(-c2nc(-c3ccc4c(c3)OCO4)c(-c3ccccn3)[nH]2)cc1` [SB431542], the optimal action concentration in data set [3] was 2 µM. Besides, in data set [3] (three weeks of induction), the “efficiency of reprogramming induced cardiomyocytes (number of Myh6-mCherry positive cells)” value was “increase the efficiency of reprogramming induced cardiomyocytes”.

`COc1ccc2cc(CCC(C)=O)ccc2c1` [Nabumetone]: the “replacement of the effect of Baricitinib” value in data set [4] is “could not replace the effect of Baricitinib”.

In the case of `C[C@H](NC(=O)/C(C#N)=C/c1cccc(Br)n1)c1ccccc1` [WP1066], in data set [1], the “replacement of Baricitinib” value was “only its structural analogue Ruxolitinib could be used for replacement”.

For `c1ccc2c(-c3cnn4cc(-c5ccc(N6CCNCC6)cc5)cnc34)ccnc2c1` [LDN-193189], the “replacement of SB431542” value in data set [1] is on record as “could be effectively replaced by small molecules of the same signaling pathway”.

On to `Cn1cc(-c2cn3nccc3c(-c3cnn([C@]4(CC#N)C[C@@H](C#N)C4)c3)n2)cn1` [PF-06826647], for which, in data set [2], the beating cardiomyocytes result is recorded as “could induce beating cardiomyocytes from fibroblasts”; the “cTnI and a-actinin positive cells” value is “could induce a number of cardiac specific markers cTnI and a-actinin positive cells from fibroblasts”.

Regarding `c1ccc(-c2[nH]ncc2-c2ccnc3ccccc23)nc1` [LY364947], the “replacement of SB431542” value in data set [1] is “could be effectively replaced by small molecules of the same signaling pathway”.

Take `O=C(Nc1nc2cccc(-c3ccc(CN4CCS(=O)(=O)CC4)cc3)n2n1)C1CC1` [Filgotinib]: the “replacement of Baricitinib” value in data set [1] is recorded as “only its structural analogue Ruxolitinib could be used for replacement”.

As for “shTyk2#2: shRNA targeting Tyk2 gene, SEQ ID NO: 2 (CCCTTCATCAAGCTAAGTGATCTCGAGATCACTTAGCTTGATGAAGGG)”, in data set [5], the “knockdown of Tyk2 expression” value is “could knockdown the expression of Tyk2”. Besides, the “efficiency of cardiomyocyte reprogramming (cTnI and a-actinin immunofluorescence)” value in data set [6] is on record as “could achieve similar efficiency of cardiomyocyte reprogramming as small molecule combination 2C”.

Consider “shTyk2#3: shRNA targeting Tyk2 gene, SEQ ID NO: 3 (CCACTTTAAGAATGAGAGCTTCTCGAGAAGCTCTCATTCTTAAAGTGG)”, for which the “knockdown of Tyk2 expression” value in data set [5] was “could knockdown the expression of Tyk2”. Further, the “efficiency of cardiomyocyte reprogramming (cTnI and a-actinin immunofluorescence)” value in data set [6] is on record as “could achieve similar efficiency of cardiomyocyte reprogramming as small molecule combination 2C”.

For the compound `Fc1ccc(Cl)cc1-c1nc(Nc2ccncc2)c2nccnc2n1` [SD-208], the “replacement of SB431542” value in data set [1] is listed as “could be effectively replaced by small molecules of the same signaling pathway”.

Regarding `Cc1cccc(-c2[nH]ncc2-c2ccc3ncccc3n2)n1` [RepSox], the “replacement of SB431542” value in data set [1] is on record as “could be effectively replaced by small molecules of the same signaling pathway”.

With “shTyk2#1: shRNA targeting Tyk2 gene, SEQ ID NO: 1 (CCCATCTTCATTAGCTGGGAACTCGAGTTCCCAGCTAATGAAGATGGG)”, the “knockdown of Tyk2 expression” value in data set [5] is on record as “could knockdown the expression of Tyk2”. Also, in data set [6], the “efficiency of cardiomyocyte reprogramming (cTnI and a-actinin immunofluorescence)” value is “could achieve similar efficiency of cardiomyocyte reprogramming as small molecule combination 2C”.

On to `O=C(NC1CCOCC1)c1ccc(-c2cc(-c3c[nH]nc3-c3ccccn3)ccn2)cc1` [GW788388], for which the “replacement of SB431542” value in data set [1] is listed as “could be effectively replaced by small molecules of the same signaling pathway”.

Take `c1ccc(-c2nn3c(c2-c2ccnc4cc(OCCN5CCOCC5)ccc24)CCC3)nc1` [LY2109761]: in data set [1], the “replacement of SB431542” value is “could be effectively replaced by small molecules of the same signaling pathway”.

For `CCS(=O)(=O)N1CC(CC#N)(n2cc(-c3ncnc4[nH]ccc34)cn2)C1` [Baricitinib], the optimal action concentration in data set [3] worked out at 2 µM.

In the case of `Cc1cc(Nc2nc(N[C@@H](C)c3ncc(F)cn3)ncc2Cl)n[nH]1` [AZD1480], the “replacement of Baricitinib” value in data set [1] was “only its structural analogue Ruxolitinib could be used for replacement”.
